Molecules are shown by their SMILES.

The test deals with T1, Purified ERAP1(37-941)-10His (ERAP1) (Homo sapiens, UniProt Q9NZ08).
T1 construct: Purified ERAP1(37-941)-10His (ERAP1); 10His (C)
T1 sequence (Q9NZ08 37-941): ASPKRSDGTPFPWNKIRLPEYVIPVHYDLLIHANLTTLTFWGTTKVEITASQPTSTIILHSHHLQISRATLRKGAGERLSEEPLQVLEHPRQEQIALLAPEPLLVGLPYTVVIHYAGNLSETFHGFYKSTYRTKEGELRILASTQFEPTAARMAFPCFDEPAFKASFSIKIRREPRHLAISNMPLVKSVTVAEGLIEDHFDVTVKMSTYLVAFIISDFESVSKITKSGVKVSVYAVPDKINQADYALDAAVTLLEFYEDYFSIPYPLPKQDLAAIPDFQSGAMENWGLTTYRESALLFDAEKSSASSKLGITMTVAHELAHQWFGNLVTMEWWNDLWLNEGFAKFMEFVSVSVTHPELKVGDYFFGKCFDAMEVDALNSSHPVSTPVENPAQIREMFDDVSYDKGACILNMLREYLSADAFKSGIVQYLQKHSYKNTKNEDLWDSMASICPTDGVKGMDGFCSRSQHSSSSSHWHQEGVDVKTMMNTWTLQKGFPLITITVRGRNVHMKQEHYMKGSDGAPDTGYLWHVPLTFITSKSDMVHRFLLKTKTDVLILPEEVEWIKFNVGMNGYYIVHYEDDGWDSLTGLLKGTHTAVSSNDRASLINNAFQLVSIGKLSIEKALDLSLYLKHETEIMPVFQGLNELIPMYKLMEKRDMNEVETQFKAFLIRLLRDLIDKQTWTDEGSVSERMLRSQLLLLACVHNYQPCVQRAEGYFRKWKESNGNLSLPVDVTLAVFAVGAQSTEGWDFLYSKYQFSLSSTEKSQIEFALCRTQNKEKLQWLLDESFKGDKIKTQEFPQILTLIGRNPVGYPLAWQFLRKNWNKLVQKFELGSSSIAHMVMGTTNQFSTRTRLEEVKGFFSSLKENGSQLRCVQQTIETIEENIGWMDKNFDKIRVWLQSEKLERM
In words: ERAP1 mediated hydrolysis of an amide substrate measured in a biochemical system (10-mer decapeptide substrate). Particulars: 10-mer substrate, 23° C. for 1 h, excitation 279 nm and emission 355 nm; read-out: IC50 vs Decapeptide WRVYEKC(Dnp)ALK-acid (where Dnp is Dinitrophenyl maleimide) (10-mer). How it is done: Biological Assay 1: ERAP1 Mediated Hydrolysis of an Amide Substrate Measured in a Biochemical System
1× Assay buffer (AB): 25 mM Bis-tris propane, 0.05% w/v Hydroxypropylmethylcellulose pH 7.75 made with Optima grade water
Decapeptide WRVYEKC(Dnp)ALK-acid (where Dnp is Dinitrophenyl maleimide) (10-mer) L-Leucine 7-amido-4-methylcoumarin (L-AMC)
12.5 μL ERAP1 enzyme in 1×AB was combined with 250 nL test compound in DMSO. 12.5 μL of either 240 μM L-AMC in 1×AB or 100 μM 10-mer in 1×AB was added to the reaction and incubated at 23° C. for 1 h. For detection, plates were read at excitation 365 nm and emission 442 nm (L-AMC) or excitation 279 nm and emission 355 nm (10-mer). Compound IC50 was determined using a 4 parameter equation.
With `COc1ccc(C(=O)O)cc1S(=O)(=O)Nc1cc(C(F)(F)F)ccc1-c1ccccc1` [Example 1, 4-methoxy-3-(N-(4-(trifluoromethyl)-[1,1′-biphenyl]-2-yl)sulfamoyl)benzoic acid], the IC50 (commonly the concentration that gives 50% inhibition) was less than 500 nM.

For `COc1ccc(C(=O)O)cc1S(=O)(=O)Nc1cc(C(F)(F)F)ccc1-c1cccnc1` [Example 2, 4-methoxy-3-(N-(2-(pyridin-3-yl)-5-(trifluoromethyl)phenyl)sulfamoyl)benzoic acid], the IC50 is less than 500 nM.

As for `COc1ccc(C(=O)O)cc1S(=O)(=O)Nc1cc(C(F)(F)F)ccc1-c1cccs1` [Example 3, 4-methoxy-3-(N-(2-(thiophen-2-yl)-5-(trifluoromethyl)phenyl)sulfamoyl)benzoic acid], the IC50 is less than 500 nM.

For the compound `COc1ccc(C(=O)O)cc1S(=O)(=O)Nc1cc(C(F)(F)F)ccc1-c1cc(C)nn1C` [Example 4, 3-(N-(2-(1,3-dimethylpyrazol-5-yl)-5-(trifluoromethyl)phenyl)sulfamoyl)-4-methoxybenzoic acid], the IC50 is less than 5000 nM.

As for `COc1ccc(C(=O)O)cc1S(=O)(=O)Nc1cc(C(F)(F)F)ccc1-c1ccnn1CC(C)C` [Example 5, 3-(N-(2-(1-isobutylpyrazol-5-yl)-5-(trifluoromethyl)phenyl)sulfamoyl)-4-methoxybenzoic acid], the IC50 is less than 5000 nM.

As for `COc1ccc(C(=O)O)cc1S(=O)(=O)Nc1cc(C(F)(F)F)ccc1-c1cccc(C)c1` [Example 6, 4-methoxy-3-(N-(3′-methyl-4-(trifluoromethyl)-[1,1′-biphenyl]-2-yl)sulfamoyl)benzoic acid], the IC50 was less than 500 nM.

Turning to `COc1ccc(C(=O)O)cc1S(=O)(=O)Nc1cc(C(F)(F)F)ccc1-c1cccc(C#N)c1` [Example 7, 3-(N-(3′-cyano-4-(trifluoromethyl)-[1,1′-biphenyl]-2-yl)sulfamoyl)-4-methoxybenzoic acid], the IC50 is less than 500 nM.

For the compound `COc1ccc(C(=O)O)cc1S(=O)(=O)Nc1cc(C(F)(F)F)ccc1-c1ccccc1C` [Example 8, 4-methoxy-3-(N-(2′-methyl-4-(trifluoromethyl)-[1,1′-biphenyl]-2-yl)sulfamoyl)benzoic acid], the 50% inhibitory concentration (IC50) is less than 500 nM.

`COc1ccc(C(=O)O)cc1S(=O)(=O)Nc1cc(C(F)(F)F)ccc1-c1ccccc1F` [Example 9, 3-(N-(2′-fluoro-4-(trifluoromethyl)-[1,1′-biphenyl]-2-yl)sulfamoyl)-4-methoxybenzoic acid]: the IC50 is less than 500 nM.

`COc1ccc(C(=O)O)cc1S(=O)(=O)Nc1cc(C(F)(F)F)ccc1-c1ccccc1Cl` [Example 10, 3-(N-(2′-chloro-4-(trifluoromethyl)-[1,1′-biphenyl]-2-yl)sulfamoyl)-4-methoxybenzoic acid]: the IC50 was less than 5000 nM.

With `COc1ccccc1-c1ccc(C(F)(F)F)cc1NS(=O)(=O)c1cc(C(=O)O)ccc1OC` [Example 11, 4-methoxy-3-(N-(2′-methoxy-4-(trifluoromethyl)-[1,1′-biphenyl]-2-yl)sulfamoyl)benzoic acid], the half-inhibitory concentration (IC50) was less than 5000 nM.

On to `COc1ccc(C(=O)O)cc1S(=O)(=O)Nc1cc(C(F)(F)F)ccc1-c1ccc(F)cc1` [Example 12, 3-(N-(4′-fluoro-4-(trifluoromethyl)-[1,1′-biphenyl]-2-yl)sulfamoyl)-4-methoxybenzoic acid], for which the IC50 is less than 500 nM.

Regarding `COc1ccc(C(=O)O)cc1S(=O)(=O)Nc1cc(C(F)(F)F)ccc1-c1ccccc1C#N` [Example 13, 3-(N-(2′-cyano-4-(trifluoromethyl)-[1,1′-biphenyl]-2-yl)sulfamoyl)-4-methoxybenzoic acid], the IC50 was less than 5000 nM.

As for `COc1ccc(C(=O)O)cc1S(=O)(=O)Nc1cc(C(F)(F)F)ccc1-c1ccncc1` [Example 14, 4-methoxy-3-(N-(2-(pyridin-4-yl)-5-(trifluoromethyl)phenyl)sulfamoyl)benzoic acid], the half-inhibitory concentration (IC50) is more than 5000 nM.

Take `COc1ccc(C(=O)O)cc1S(=O)(=O)Nc1cc(C(F)(F)F)ccc1-c1cccc(F)c1` [Example 15, 3-(N-(3′-fluoro-4-(trifluoromethyl)-[1,1′-biphenyl]-2-yl)sulfamoyl)-4-methoxybenzoic acid]: the concentration for half-maximal inhibition (IC50) was less than 500 nM.

On to `COc1ccc(C(=O)O)cc1S(=O)(=O)Nc1cc(C(F)(F)F)ccc1-c1ccc(C#N)cc1` [Example 16, 3-(N-(4′-cyano-4-(trifluoromethyl)-[1,1′-biphenyl]-2-yl)sulfamoyl)-4-methoxybenzoic acid], for which the IC50 is less than 5000 nM.

As to `COc1cccc(-c2ccc(C(F)(F)F)cc2NS(=O)(=O)c2cc(C(=O)O)ccc2OC)c1` [Example 17, 4-methoxy-3-(N-(3′-methoxy-4-(trifluoromethyl)-[1,1′-biphenyl]-2-yl)sulfamoyl)benzoic acid], the IC50 is less than 5000 nM.

For the compound `COc1ccc(C(=O)O)cc1S(=O)(=O)Nc1cc(C(F)(F)F)ccc1-c1ccoc1` [Example 18, 3-(N-(2-(furan-3-yl)-5-(trifluoromethyl)phenyl)sulfamoyl)-4-methoxybenzoic acid], the 50% inhibitory concentration (IC50) is less than 500 nM.

On to `CCc1ccc(C(=O)O)cc1S(=O)(=O)Nc1cc(C(F)(F)F)ccc1-c1ccccc1` [Example 19, 4-ethyl-3-(N-(4-(trifluoromethyl)-[1,1′-biphenyl]-2-yl)sulfamoyl) benzoic acid], for which the half-inhibitory concentration (IC50) was less than 500 nM.

For the compound `COc1ccc(C(=O)O)cc1S(=O)(=O)Nc1cc(C(F)(F)F)ccc1-c1ccsc1` [Example 20, 4-methoxy-3-(N-(2-(thiophen-3-yl)-5-(trifluoromethyl)phenyl)sulfamoyl) benzoic acid], the IC50 was less than 500 nM.

Turning to `CCc1ccc(C(=O)O)cc1S(=O)(=O)Nc1cc(C(F)(F)F)ccc1-c1cccc(C#N)c1` [Example 21, 3-(N-(3′-cyano-4-(trifluoromethyl)-[1,1′-biphenyl]-2-yl)sulfamoyl)-4-ethylbenzoic acid], the IC50 is less than 500 nM.

With `CCc1ccc(C(=O)O)cc1S(=O)(=O)Nc1cc(C(F)(F)F)ccc1-c1cccs1` [Example 22, 4-ethyl-3-(N-(2-(thiophen-2-yl)-5-(trifluoromethyl)phenyl)sulfamoyl)benzoic acid], the half-inhibitory concentration (IC50) was less than 500 nM.

For the compound `COc1ccc(C(=O)O)cc1S(=O)(=O)Nc1cc(C(F)(F)F)ccc1-c1ccco1` [Example 23, 3-(N-(2-(furan-2-yl)-5-(trifluoromethyl)phenyl)sulfamoyl)-4-methoxybenzoic acid], the concentration for half-maximal inhibition (IC50) is less than 500 nM.

Regarding `CCc1ccc(C(=O)O)cc1S(=O)(=O)Nc1cc(C(F)(F)F)ccc1-c1cccc(F)c1` [Example 24, 4-ethyl-3-(N-(3′-fluoro-4-(trifluoromethyl)-[1,1′-biphenyl]-2-yl)sulfamoyl) benzoic acid], the 50% inhibitory concentration (IC50) was less than 500 nM.

In the case of `COc1ccc(C(=O)O)cc1S(=O)(=O)Nc1cc(C(F)(F)F)ccc1-c1cnco1` [Example 25, 4-methoxy-3-(N-(2-(oxazol-5-yl)-5-(trifluoromethyl)phenyl)sulfamoyl) benzoic acid], the half-inhibitory concentration (IC50) was less than 5000 nM.

For the compound `COc1ccc(C(=O)O)cc1S(=O)(=O)Nc1cc(C(F)(F)F)ccc1-c1ccccn1` [Example 26, 4-methoxy-3-(N-(2-(pyridin-2-yl)-5-(trifluoromethyl)phenyl)sulfamoyl) benzoic acid], the half-inhibitory concentration (IC50) is less than 500 nM.

Consider `CCc1ccc(C(=O)O)cc1S(=O)(=O)Nc1cc(C(F)(F)F)ccc1-c1cccnc1` [Example 27, 4-ethyl-3-(N-(2-(pyridin-3-yl)-5-(trifluoromethyl)phenyl)sulfamoyl)benzoic acid], for which the half-maximal inhibitory concentration (IC50) is less than 500 nM.

With `COc1ccc(C(=O)O)cc1S(=O)(=O)Nc1cc(C(F)(F)F)ccc1-n1cncn1` [Example 28, 3-(N-(2-(1,2,4-triazol-1-yl)-5-(trifluoromethyl)phenyl)sulfamoyl)-4-methoxybenzoic acid], the IC50 was more than 5000 nM.

For `CCc1ccc(C(=O)O)cc1S(=O)(=O)Nc1cc(C(F)(F)F)ccc1-n1cncn1` [Example 29, 3-(N-(2-(1,2,4-triazol-1-yl)-5-(trifluoromethyl)phenyl)sulfamoyl)-4-ethylbenzoic acid], the IC50 was less than 5000 nM.

As to `COc1ccc(C(=O)O)cc1S(=O)(=O)Nc1cc(C(F)(F)F)ccc1-n1cccn1` [Example 30, 3-(N-(2-(pyrazol-1-yl)-5-(trifluoromethyl)phenyl)sulfamoyl)-4-methoxybenzoic acid], the IC50 is less than 5000 nM.

With `CCc1ccc(C(=O)O)cc1S(=O)(=O)Nc1cc(C(F)(F)F)ccc1-n1cccn1` [Example 31, 3-(N-(2-(pyrazol-1-yl)-5-(trifluoromethyl)phenyl)sulfamoyl)-4-ethylbenzoic acid], the IC50 is less than 500 nM.

Consider `CCc1ccc(C(=O)O)cc1S(=O)(=O)Nc1cc(S(C)(=O)=O)ccc1-c1ccccc1` [Example 32, 4-ethyl-3-(N-(4-(methylsulfonyl)-[1,1′-biphenyl]-2-yl)sulfamoyl)benzoic acid], for which the IC50 was less than 500 nM.

Consider `CCc1ccc(C(=O)O)cc1S(=O)(=O)Nc1cc(S(C)(=O)=O)ccc1-c1cccc(F)c1` [Example 33, 4-ethyl-3-(N-(3′-fluoro-4-(methylsulfonyl)-[1,1-biphenyl]-2-yl)sulfamoyl)benzoic acid], for which the concentration for half-maximal inhibition (IC50) was less than 500 nM.

On to `CCc1ccc(C(=O)O)cc1S(=O)(=O)Nc1cc(S(C)(=O)=O)ccc1-c1cccs1` [Example 34, 4-ethyl-3-(N-(5-(methylsulfonyl)-2-(thiophen-2-yl)phenyl)sulfamoyl) benzoic acid], for which the IC50 was less than 500 nM.

Values taken from patent publication US12023333B2, “Phenyl-sulfamoyl.benzoyc acids as ERAP1 modulators” (GREY WOLF THERAPEUTICS LIMITED, priority 2019, dated 2024).
